{"source": "ChEMBL document CHEMBL6087420", "about": "“Synthesis and pharmacodynamic evaluation of 2-aminoindole derivatives against influenza A virus in vitro/vivo” (Eur J Med Chem, 2025)", "key": {"[1]": {"assay": "Toxicity in healthy BALB/c mouse assessed as pathological change in liver at 25 to 100 mg/kg administered through gavage for 6 days", "format": "organism-based", "conditions": "in vivo, po, 144 h, dose 25-100 mg/kg, time 6 day"}, "Influenza A virus [2]": {"test_system": "Influenza A virus", "assay": "Antiviral activity against influenza A virus infected in human A549 cells assessed as inhibition of RIG-1 protein expression at 25 to 100 uM by Western blot analysis", "format": "functional, organism-based", "conditions": "dose 25-100 µM"}, "Influenza A virus [3]": {"test_system": "Influenza A virus", "assay": "Antiviral activity against influenza A virus H1NI (A/Weiss/43) infected in compound pretreated MDCK cells assessed as reduction in viral absorption", "format": "functional, organism-based"}, "[4]": {"assay": "Cytotoxicity against human A549 cells assessed as toxicity after 72 hrs of incubation by MTT assay", "format": "cell-based"}, "Influenza A virus [5]": {"test_system": "Influenza A virus", "assay": "Inhibition of Hemagglutinin in Influenza A virus"}, "Influenza A virus [6]": {"test_system": "Influenza A virus", "assay": "In vivo antiviral activity against influenza A virus infected in BALB/c mouse assessed as reduction in NLRP-3 mRNA level in lung at 25 to 100 mg/kg measured after 6 dpi", "format": "functional, organism-based", "conditions": "dose 25-100 mg/kg"}, "[7]": {"assay": "Selectivity index, ratio of CC50 for dog MDCK cells to EC50 for antiviral activity against Influenza A virus H1N1 (A/Weiss/43) infected in MDCK cells", "format": "toxicity, cell-based", "conditions": "read-out: Ratio CC50/EC50"}, "Influenza A virus [8]": {"test_system": "Influenza A virus", "assay": "Antiviral activity against influenza A virus infected in A549 cells assessed as decrease in IAV-NP mRNA level measured after 1 to 3 days of viral infection", "format": "functional, organism-based", "conditions": "time 1-3 day"}, "Influenza A virus [9]": {"test_system": "Influenza A virus", "assay": "Antiviral activity against influenza A virus infected in human A549 cells assessed as inhibition of IL-13 expression by qRT-PCR analysis", "format": "functional, organism-based"}, "Influenza A virus [10]": {"test_system": "Influenza A virus", "assay": "Inhibition of influenza A virus infection induced apoptosis in MDCK cells infected with influenza virus assessed as decrease in cleaved caspase 3 at 25 to 100 uM incubated for 36 hrs by Western blot analysis", "format": "functional, organism-based", "conditions": "dose 25-100 µM"}, "Influenza A virus [11]": {"test_system": "Influenza A virus", "assay": "Antiviral activity against influenza A virus infected in A549 cells assessed as decrease in IAV-M2 mRNA level measured after 1 to 3 days of viral infection", "format": "functional, organism-based", "conditions": "time 1-3 day"}, "Influenza A virus [12]": {"test_system": "Influenza A virus", "assay": "Inhibition of influenza A virus infection induced apoptosis in MDCK cells infected with influenza virus assessed as decrease in cleaved caspase 9 incubated for 36 hrs by Western blot analysis", "format": "functional, organism-based"}, "Influenza A virus [13]": {"test_system": "Influenza A virus", "assay": "Antiviral activity against influenza A virus infected in human A549 cells assessed as inhibition of IRF7 expression by qRT-PCR analysis", "format": "functional, organism-based"}, "Influenza A virus [14]": {"test_system": "Influenza A virus", "assay": "Inhibition of influenza A virus infection induced apoptosis in MDCK cells infected with influenza virus assessed as early apoptotic cells at 50 uM incubated for 36 hrs by AnnexinV-FITC/PI staining based flow cytometry (reference value: 18.2%)", "format": "functional", "parameters": "scale not given: the % may be the effect or the level left"}, "Influenza A virus [15]": {"test_system": "Influenza A virus", "assay": "Antiviral activity against influenza A virus H1NI (A/Weiss/43) infected in human A549 cells assessed as reduction in viral titers in supernatants at 0.25 to 100 uM", "format": "functional, organism-based", "conditions": "dose 0.25-100 µM"}, "Influenza A virus [16]": {"test_system": "Influenza A virus", "assay": "Inhibition of influenza A virus infection induced apoptosis in MDCK cells infected with influenza virus assessed as necrotic cells at 25 uM incubated for 36 hrs by AnnexinV-FITC/PI staining based flow cytometry (reference value: 1.79%)", "format": "functional", "parameters": "scale not given: the % may be the effect or the level left"}, "Influenza A virus [17]": {"test_system": "Influenza A virus", "assay": "Inhibition of influenza A virus infection induced apoptosis in MDCK cells infected with influenza virus assessed as viable cells at 100 uM incubated for 36 hrs by AnnexinV-FITC/PI staining based flow cytometry (reference value: 66.9%)", "format": "functional"}, "Influenza A virus [18]": {"test_system": "Influenza A virus", "assay": "Antiviral activity against influenza A virus infected in A549 cells assessed as decrease in IAV-NP expression at 25 to 100 uM cells pretreated for 48 hrs followed by infected with virus by green fluorescent labelling based confocal microscopy", "format": "functional, organism-based", "conditions": "dose 25-100 µM"}, "Influenza A virus [19]": {"test_system": "Influenza A virus", "assay": "Antiviral activity against influenza virus infected in A549 cells assessed as inhibition in inflammatory cell invasion", "format": "functional, organism-based"}, "Influenza A virus [20]": {"test_system": "Influenza A virus", "assay": "In vivo antiviral activity against influenza A virus infected in BALB/c mouse assessed as reduction in Caspase-1 mRNA level in lung at 25 to 100 mg/kg measured after 6 dpi", "format": "functional, organism-based", "conditions": "dose 25-100 mg/kg"}, "Influenza A virus [21]": {"test_system": "Influenza A virus", "assay": "Anti-influenza activity against influenza A virus H1NI (A/Virginia/ATCC2/2009) infected in dog MDCK cells incubated for 72 hrs by MTT assay", "format": "functional, organism-based", "conditions": "Influenza A virus, H1NI (A/Virginia/ATCC2/2009), MDCK, 72 h"}, "Influenza A virus [22]": {"test_system": "Influenza A virus", "assay": "In vivo antiviral activity against influenza A virus infected in BALB/c mouse assessed as reduction in IL-6 mRNA level in lung at 25 to 100 mg/kg measured after 6 dpi", "format": "functional, organism-based", "conditions": "dose 25-100 mg/kg"}, "Influenza A virus [23]": {"test_system": "Influenza A virus", "assay": "Inhibition of influenza A virus infection induced apoptosis in MDCK cells infected with influenza virus assessed as late apoptotic cells at 100 uM incubated for 36 hrs by AnnexinV-FITC/PI staining based flow cytometry (reference value: 13.2%)", "format": "functional", "parameters": "scale not given: the % may be the effect or the level left"}, "Influenza A virus [24]": {"test_system": "Influenza A virus", "assay": "In vivo antiviral activity against influenza A virus infected in BALB/c mouse assessed as reduction in TNF-alpha mRNA level in lung at 25 to 100 mg/kg measured after 6 dpi", "format": "functional, organism-based", "conditions": "dose 25-100 mg/kg"}, "Influenza A virus [25]": {"test_system": "Influenza A virus", "assay": "Anti-influenza activity against influenza A virus H1NI (A/Weiss/43) infected in dog MDCK cells assessed as virus inhibition rate incubated for 72 hrs by MTT assay", "format": "functional, organism-based"}, "Influenza A virus [26]": {"test_system": "Influenza A virus", "assay": "Inhibition of neuraminidase in Influenza A virus"}, "Influenza A virus [27]": {"test_system": "Influenza A virus", "assay": "Antiviral activity against influenza A virus infected in human A549 cells assessed as inhibition of IFN-gamma expression by qRT-PCR analysis", "format": "functional, organism-based"}, "Influenza A virus [28]": {"test_system": "Influenza A virus", "assay": "Inhibition of influenza A virus infection induced apoptosis in MDCK cells assessed as necrotic cells at 100 uM incubated for 36 hrs by AnnexinV-FITC/PI staining based flow cytometry (reference value: 0.74%)", "format": "functional", "parameters": "scale not given: the % may be the effect or the level left"}, "Influenza A virus [29]": {"test_system": "Influenza A virus", "assay": "Inhibition of influenza A virus infection induced apoptosis in MDCK cells infected with influenza virus assessed as late apoptotic cells at 50 uM incubated for 36 hrs by AnnexinV-FITC/PI staining based flow cytometry (reference value: 13.2%)", "format": "functional", "parameters": "scale not given: the % may be the effect or the level left"}, "Influenza A virus [30]": {"test_system": "Influenza A virus", "assay": "Inhibition of influenza A virus infection induced apoptosis in MDCK cells infected with influenza virus assessed as late apoptotic cells at 25 uM incubated for 36 hrs by AnnexinV-FITC/PI staining based flow cytometry (reference value: 13.2%)", "format": "functional", "parameters": "scale not given: the % may be the effect or the level left"}, "Influenza A virus [31]": {"test_system": "Influenza A virus", "assay": "In vivo antiviral activity against influenza A virus infected in BALB/c mouse assessed as reduction in IAV-M2 mRNA level in lung at 25 to 100 mg/kg measured after 6 dpi", "format": "functional, organism-based", "conditions": "dose 25-100 mg/kg"}, "[32]": {"assay": "Cytotoxicity against dog MDCK cells after 72 hrs incubation by MTT assay", "format": "toxicity, cell-based, Canis lupus familiaris"}, "Influenza A virus [33]": {"test_system": "Influenza A virus", "assay": "Inhibition of influenza A virus infection induced apoptosis in MDCK cells infected with influenza virus assessed as necrotic cells at 100 uM incubated for 36 hrs by AnnexinV-FITC/PI staining based flow cytometry (reference value: 1.79%)", "format": "functional", "parameters": "scale not given: the % may be the effect or the level left"}, "Influenza A virus [34]": {"test_system": "Influenza A virus", "assay": "Antiviral activity against influenza A virus infected in A549 cells assessed as decrease in IAV-M2 expression at 25 to 100 uM cells pretreated for 48 hrs followed by infected with virus by green fluorescent labelling based confocal microscopy", "format": "functional, organism-based", "conditions": "dose 25-100 µM"}, "Influenza A virus [35]": {"test_system": "Influenza A virus", "assay": "Inhibition of influenza A virus infection induced apoptosis in MDCK cells infected with influenza virus assessed as early apoptotic cells at 100 uM incubated for 36 hrs by AnnexinV-FITC/PI staining based flow cytometry (reference value: 18.2%)", "format": "functional", "parameters": "scale not given: the % may be the effect or the level left"}}, "note": "Active and inactive are the calls of the source. No cut-off for these calls is given here.", "data": [{"smiles": "COc1ccc2c(c1)c(-c1ccccc1)c(NS(C)(=O)=O)n2S(=O)(=O)c1ccc(C)cc1", "values": [{"measurement": "Activity", "setting": "[1]", "value": "Non-toxic"}, {"measurement": "Activity", "setting": "Influenza A virus [2]", "value": "Active"}, {"measurement": "Activity", "setting": "Influenza A virus [3]", "value": "inactive"}, {"measurement": "CC50 at 72 h", "setting": "[4]", "value": 632, "unit": "µM"}, {"measurement": "inhibition", "setting": "Influenza A virus [5]", "value": "inactive"}, {"measurement": "Activity", "setting": "Influenza A virus [6]", "value": "Active"}, {"measurement": "selectivity ratio", "setting": "[7]", "value": 80}, {"measurement": "Activity", "setting": "Influenza A virus [8]", "value": "Active"}, {"measurement": "Activity", "setting": "Influenza A virus [9]", "value": "Active"}, {"measurement": "Activity", "setting": "Influenza A virus [10]", "value": "Active"}, {"measurement": "Activity", "setting": "Influenza A virus [11]", "value": "Active"}, {"measurement": "Activity", "setting": "Influenza A virus [12]", "value": "Dose-dependent-effect"}, {"measurement": "Activity", "setting": "Influenza A virus [13]", "value": "Active"}, {"measurement": "Activity", "setting": "Influenza A virus [14]", "value": 9.21, "unit": "%"}, {"measurement": "Activity", "setting": "Influenza A virus [15]", "value": "Active"}, {"measurement": "Activity", "setting": "Influenza A virus [16]", "value": 1.23, "unit": "%"}, {"measurement": "Activity", "setting": "Influenza A virus [17]", "value": 92.8, "unit": "%"}, {"measurement": "Activity", "setting": "Influenza A virus [18]", "value": "Active"}, {"measurement": "Activity", "setting": "Influenza A virus [19]", "value": "Active"}, {"measurement": "Activity", "setting": "Influenza A virus [20]", "value": "Active"}, {"measurement": "EC50", "setting": "Influenza A virus [21]", "value": 12.9, "unit": "µM"}, {"measurement": "Activity", "setting": "Influenza A virus [22]", "value": "Active"}, {"measurement": "Activity", "setting": "Influenza A virus [23]", "value": 1.62, "unit": "%"}, {"measurement": "Activity", "setting": "Influenza A virus [24]", "value": "Active"}, {"measurement": "EC50", "setting": "Influenza A virus [25]", "value": 8.37, "unit": "µM"}, {"measurement": "inhibition", "setting": "Influenza A virus [26]", "value": "inactive"}, {"measurement": "Activity", "setting": "Influenza A virus [27]", "value": "Active"}, {"measurement": "Activity", "setting": "Influenza A virus [28]", "value": 1.78, "unit": "%"}, {"measurement": "Activity", "setting": "Influenza A virus [29]", "value": 4.07, "unit": "%"}, {"measurement": "Activity", "setting": "Influenza A virus [30]", "value": 9.29, "unit": "%"}, {"measurement": "Activity", "setting": "Influenza A virus [31]", "value": "Active"}, {"measurement": "CC50 at 72 h", "setting": "[32]", "value": 669, "unit": "µM"}, {"measurement": "Activity", "setting": "Influenza A virus [33]", "value": 1.74, "unit": "%"}, {"measurement": "Activity", "setting": "Influenza A virus [34]", "value": "Active"}, {"measurement": "Activity", "setting": "Influenza A virus [35]", "value": 3.6, "unit": "%"}]}]}
